Measurements published in the AptaBench aptamer set (doi:10.1093/nar/gkaf219).

Legend:
Details in all cases: 10 mM Tris-HCl, pH 7.4
[1] = tested on: DNA aptamer or structured DNA CTTACGACACAGGGTGTGTTGTGCTCAGTGGTGTATGTGTCGTAAG
[2] = tested on: DNA aptamer or structured DNA CTTACGACGGGGTGGGGGCGGCTTCCCATGGGAGGGGTGTCGTAAG
[3] = tested on: DNA aptamer or structured DNA GGGACGACGCACTATGGCTAGGGTTGGTACGGTCGTGAACCGCGGGGTGTCGTCCC
[4] = tested on: DNA aptamer or structured DNA GGGACGACGGCAATTGCCGGTGCAGGATCTGAATTATCGTCGTCCC
[5] = tested on: DNA aptamer or structured DNA GGGACGACGGCACGAGGTTAATCGTTGGTTGCACTGCGCTGGGAGGCAGTCGTCCC
[6] = tested on: DNA aptamer or structured DNA GGGACGACGGTTGGCATTGGGTCGGGTGTGGGTGCGGCGTCGTCCC
[7] = tested on: DNA aptamer or structured DNA GGGACGACTACAGGTCGTGCGTTGCTCGAGTTGGTGAGTGTGTCGTCCC
[8] = tested on: DNA aptamer or structured DNA TTCAAATCTGAGCAGCCTAGTTACTGACGGGTTTATAGTACTCGCACTGAGTCTAGATTTGAA
[9] = tested on: DNA aptamer or structured DNA CTTACGACAAAGGCTCGGGCTCCCATGATGGATTCGTTGTCGTAAG
[10] = tested on: DNA aptamer or structured DNA CTTACGACAAGGGATGTTTGTTAGTGTGTCGGATCTATGTCGTAAG
[11] = tested on: DNA aptamer or structured DNA CTTACGACACAGGGGGGGGCTAGGGTGCGCGGAAGCTGGTCGTAAG
[12] = tested on: DNA aptamer or structured DNA CTTACGACTTGTTCTGAGGGTCAACGGTGGTGTAGTTAGTCGTAAG
[13] = tested on: DNA aptamer or structured DNA GGGACGACACGTGTGGCTGGTAGGGTAGGTCTTGTCGCGTCGTCCC
[14] = tested on: DNA aptamer or structured DNA GGGACGACGCCGGCTTCTAGGGGGGGTGTGGGTGGCGAGTCGTCCC
[15] = tested on: DNA aptamer or structured DNA GGGACGACGGGGGGCTTTAGGGTGTAGGAGTGGGGTGAGTCGTCCC
[16] = tested on: DNA aptamer or structured DNA TTCAAATCTTGCGAATTGGACTCAGAATGTGGGTTTGCCAGTCTAGATTTGAA
[17] = tested on: DNA aptamer or structured DNA CTTACGACCTGCTCTGAGGGTCAACGGTGGTGTAGTCGGTCGTAAG
[18] = tested on: DNA aptamer or structured DNA GGGACGACAGGGATTCGGTCTTGGTACATAGGGGCCTCGTCTGTCGTCCC
[19] = tested on: DNA aptamer or structured DNA GGGACGACCAGGATTCGGTTCGGAAAGTCCAGTGCCTCGTTGGTCGTCCC
[20] = tested on: DNA aptamer or structured DNA GGGACGACCAGGATTCGGTTCTTTGTAAATAGTGCCTCGTTGGTCGTCCC
[21] = tested on: DNA aptamer or structured DNA GGGACGACGGGGATTCGCGGATTCGGAGAAAAGGGCTCGTACGTCGTCCC
[22] = tested on: DNA aptamer or structured DNA GGGACGACTAGTGCCTTCGTGTTGTTCAGGAATCCGGTTCTGTCGTCCC
[23] = tested on: DNA aptamer or structured DNA GGGACGACTGCTTGGGTAGGTCGGGTTTGGGTGCGGCGGTCGTCCC
[24] = tested on: DNA aptamer or structured DNA GGGACGACGCGTACCATGGGTAGTTGCACGTCGTCCAAGTCGTCCC
[25] = tested on: DNA aptamer or structured DNA GGGACGACTAGCCGTGGCGTTGTTCGAGTGCAGCGAGTAGTCGTCCC
[26] = tested on: DNA aptamer or structured DNA GGGACGACATCGTAGGGGCACACGCTTAACGGGCTGATGTCGTCCC
[27] = tested on: DNA aptamer or structured DNA GGGACGACGGGGGGAGTAATGTTTGTGTGGGGGAGCCGGTCGTCCC
For binding call in this document: call rule not given here.

SMILES | binding call [1] | binding call [2] | binding call [3] | binding call [4] | binding call [5] | binding call [6] | binding call [7] | binding call [8] | binding call [9] | binding call [10] | binding call [11] | binding call [12] | binding call [13] | binding call [17] | binding call [23] | further results
CN[C@@H](C)[C@@H](O)c1ccccc1 | no binding | no binding | no binding | binds | no binding | no binding | no binding | no binding | – | – | – | – | – | – | – | –
CNC(C)Cc1ccc2c(c1)OCO2 (stereo not given) | – | – | no binding | binds | binds | – | binds | no binding | no binding | binds | no binding | no binding | binds | – | – | binding call [14]: no binding; binding call [15]: no binding; binding call [16]: no binding
CC(C)[C@H](NC(=O)c1nn(Cc2ccc(F)cc2)c2ccccc12)C(N)=O | – | – | – | – | – | – | – | – | – | – | no binding | – | – | – | – | Kd [13]: 13900 nM; Kd [14]: 4690 nM; Kd [15]: 138 nM; Kd [16]: 998 nM
CN1CC[C@]23c4c5ccc(O)c4O[C@H]2[C@@H](O)C=C[C@H]3[C@H]1C5 | no binding | no binding | – | no binding | no binding | – | – | no binding | – | – | no binding | – | – | no binding | – | Kd [18]: 1100 nM; Kd [19]: 3100 nM; Kd [20]: 1800 nM; Kd [21]: 2300 nM; Kd [22]: 3500 nM
CC(N)Cc1ccccc1 (stereo not given) | – | – | binds | binds | binds | no binding | binds | no binding | – | no binding | – | no binding | binds | – | no binding | binding call [15]: no binding; binding call [16]: no binding
CC(=O)Nc1ccc(O)cc1 | no binding | no binding | – | – | – | – | – | – | no binding | no binding | no binding | no binding | – | no binding | – | binding call [24]: no binding; binding call [25]: no binding
C=C[C@H]1CN2CC[C@@H]1C[C@H]2[C@H](O)c1ccnc2ccc(OC)cc12 | binds | binds | – | binds | no binding | no binding | no binding | binds | no binding | no binding | no binding | no binding | binds | no binding | no binding | binding call [18]: no binding; binding call [26]: no binding; binding call [19]: binds; binding call [21]: no binding; binding call [27]: no binding; binding call [22]: no binding
COC(=O)C(c1ccccc1)C1CCCCN1 (stereo not given) | – | – | – | binds | – | binds | binds | no binding | – | – | – | no binding | – | – | binds | –
